The text below walks through data of patent US5776945A (priority 1995, dated 1998).

Assay [1] relates to Rat Middle Cerebral Artery Occlusion Model. The assay is described as follows: Infarction Suppression Effect in Rat Middle Cerebral Artery Occlusion (MCAO) Model. The following applies: i.p. 1 hour before occlusion and 1 hour after reopening, infarction volume 4 days after. Type of assay: in vivo, rat (Wistar). From the text:
Remarkable cerebral edema accompanied with severe cerebrovascular lesions appears in the acute stage of human cerebral infarction. […] Corresponding to development of the lesion from the infarction area to surrounding tissues, the patient's life is seriously affected besides motor and mental functional loss in the conditions of the acute stage of cerebral infarction. A middle cerebral artery occlusion (MCAO; Middle Cerebral Artery Occlusion) model in Wistar rats using emboli with threads is well known as an experimental cerebral ischemia model in which clinical potency of a medicine can be accurately evaluated conforming to clinical conditions of human cerebral infarction [J. Koizumi, Japan Journal of Stroke, 8, 1 (1986)]. This MCAO model was employed as an in vivo evaluation system for evaluating the suppression effect of the compounds of the present invention on infarction development and was conducted according to the following method:
Under 1.0% halothane anesthesia induced by ether, the cervical region of each 10-week old rat was excised at center to expose the furcation of the right carotid while paying attention not to damage the vagus nerve. Centering around the furcation of the right carotid, the common carotid and the external carotid were separated from the surrounding tissues, each of them was ligated with 6-0 floss (Eto K.K.), and another floss was wound around the origin of the internal carotid so as to ligate and fix after inserting the embolus into the carotid. The common carotid was then incised to insert the ebolus toward the internal carotid to approximately 15 to 16 mm, and the proximal terminal of a nylon thread of the embolus was ligated and fixed to the internal carotid with the above mentioned floss. Due to the above procedure, the tip of the embolus exceeded the furcation of the middle cerebral artery, entered into the anterior cerebral artery to approximately 1 to 2 mm, and the entrance of the middle cerebral artery was occluded by the embolus body (made of a resin) for 2 hours. To reopen, the embolus with a thread was pulled away so as to restart the blood flow to the middle cerebral artery. Each of the subject compounds was intraperitoneally administered 1 hour before occlusion and 1 hour after reopening. Four days after the occlusion-reopening, each rat was systematically perfused with a saline from the heart and the brain was removed. After cooling each of the obtained brains with iced-water for 5 min., 7 coronary slices, taken at 2.0 mm intervals, of the cerebrum were prepared. Each slice was stained with TTC (triphenyltetrazolium chloride) and fixed with a neutral 5% formalin buffer solution, then the infarction area of the right cerebral hemisphere was measured by an image analyzer (Olympus) so as to evaluate the infraction expressed as a volume (mm3). The resulting infraction volume was compared with that of a control group to calculate the infarction suppression ratio.

The subject of assay [2] is Capsaicin Induced Cough. Nature of the assay: animal or person. Type of assay: in vivo. The settings on record: Rattus norvegicus, ip; read-out: ED50, antitussive effect (dose exhibiting 50% cough suppression ratio).
The subject of assay [3] is Cultured Neurocyte (cerebral cortexes), Glutamic Acid Toxicity. The assay is described as follows: Cultured-Neurocyte Protective Effect against Glutamic Acid Toxicity (LDH leakage). Type of assay: cell-based, rat (Wistar, fetal). The settings on record: Rattus norvegicus, Cerebral cortex neuron, 10 mM glutamic acid, 24 hours at 37° C., read-out: ED50 (50% effective dose), neurocyte protective effect against glutamic acid toxicity. The source says:
It is known that delayed cerebral-neuronal death is induced if blood flow to the brain is transiently stopped by transient ischemia, anoxia, hypoglycemia, or trauma [T. Kirino, Brain Research, 239, 57 (1982).]. The excitatory toxicity of excitatory neurotransmitters, such as glutamic acid, which is excessively released when associated with ischemia is considered as the cause of the neurocyte damage [S. M. Rotherman and J. W. Olney, Trends in Neuroscience, 10, 299 (1987).]. A compound which protects neurocytes from the cytotoxicity of glutamic acid will be promising as a preventive and therapeutic agent for cerebral ischemic diseases, cerebral neurocyte disorder, and dementia. The following method is employed as an in vitro evaluation system of the protective effect.
Under sterilized conditions, fetuses were taken from female Wistar rats 18 to 19 day-pregnant and the brains thereof were obtained by opening their cranial portions. The brains were placed in an ice-cold L-15 medium to microscopically separate the cerebral cortexes. After being cut into small pieces, the cerebral cortexes of approximately 30 rats were suspended in a mixture of 10 ml of a 0.25% trypsin solution and 0.2 ml of a 0.01% DNase solution to be cultured at 37° C. for 30 min. Then, immediately after addition of 2 ml of serum, the resultant was centrifuged at 1,200 rpm for 2 min. to separate a sediment. To the sediment, 7 ml of a DF medium (prepared by addition of 20 nM of transferrin, 5 μg/ml of insulin, 20 nM of progesterone, 60 nM of selenite, 50 U/ml of penicillin, and 50 U/ml of streptomycin to an equivalent admixture of Dulbecco modified Eagle medium and F-12 medium) was added to prepare a cell suspension which was pipetted 20 times using a 10 ml plastic pipette followed by filtration using a nylon mesh (pore size of 43 μm) to obtain isolated cells. The resulting isolated cells were diluted to 6.0×10^5 cells/ml with the DF medium, inoculated in a polylysine-precoated culture plate having 48 wells at 500 μl per well, and cultured at 37° C. in the presence of 5% CO2 for 1 day. The medium was changed with fresh DF medium on the second day, and 10 μl of a 0.5M glutamic acid solution in distilled water is added to each of the wells (the final concentration of the glutamic acid was 10 mM), and the cells were cultured for further 24 hours at 37° C. in the presence of 5% CO2. Each of the subject compounds was dissolved in distilled water, 10% or 100% DMSO, or 10% methanol and then a 5 μl aliquot was added to each well immediately before addition of glutamic acid. The enzymatic activity of lactate dehydrogenase (LDH) which leaked into the medium from the damaged cells was measured as an index of the neurocyte damage. With respect to each of the subject compounds, LDH leakage at the respective concentrations was measured and a dose-response curve was obtained by a modified Cochran-Armitige method to obtain the 50% effective dose (ED50) of each subject compound.

Assay [4] has as its system Acetic Acid-Induced Writhing. Nature of the assay: Analgesic Activity Test by Acetic Acid-Induced Writhing Method. The format is in vivo, mouse (ddY). The following applies: Mus musculus, sc; subcutaneous, 15 min. before acetic acid; writhings over 10 min. As to the method: For this experiment, 5-week old ddY mice were employed. A 0.6% aqueous acetic acid solution was intraperitoneally administered to each of the mice at 0.1 ml/10 g body weight to evaluate the analgesic activity by employing the number of writhing reactions occurring over a 10 min.-period starting from 10 min. after administration as an index. Each of the subject compounds was subcutaneously administered to the back of each mouse 15 min. before the acetic acid administration.
A general note: Writhing tests count abdominal constrictions after an irritant is injected.

For the molecule `CN(C(=O)/C=C/c1cccc(C(F)(F)F)c1)[C@H]1CC[C@H]2CN(CC3CC3)CC[C@]2(c2cccc(O)c2)C1` [Compound 8, (4aS, 8aR)-trans-2-cyclopropylmethyl-4a-(3-hydroxyphenyl)-6α-[N-methyl-(3-trifluoromethylcinnamamido)]decahydroisoquinoline], the results for the Infarction suppression ratio in assay [1] (Dose 0.03 mg/kg), in assay [1] (Dose 0.3 mg/kg) and in assay [1] (Dose 3 mg/kg) were 26%, 43% and 32%, respectively. In assay [2], the ED50 is 0.00539 mg/kg.
`O=C(N[C@@H]1CC[C@H]2CN(CC3CC3)CC[C@]2(c2cccc(O)c2)C1)c1ccc2ccccc2c1` (relative stereo) [Compound 23, Trans-2-cyclopropylmethyl-4a-(3-hydroxyphenyl)-6β-(2-naphthoamido)decahydroisoquinoline]: the Infarction suppression ratio in assay [1] (Dose 0.3 mg/kg) worked out at 23%. In assay [3], the EC50 amounted to 92 nM.
In the case of `O=C(Cc1ccc(Cl)c(Cl)c1)N[C@@H]1CC[C@H]2CN(CC3CC3)CC[C@]2(c2cccc(O)c2)C1` (relative stereo) [Compound 21, Trans-2-cyclopropylmethyl-4a-(3-hydroxyphenyl)-6β-(3,4-dichlorophenylacetamido)decahydroisoquinoline], the EC50 in assay [3] was determined as 12600 nM.
Consider `CN(C(=O)CCCCCc1ccccc1)[C@H]1CC[C@H]2CN(CC3CC3)CC[C@]2(c2cccc(O)c2)C1` [Compound 10, (4aS, 8aR)-trans-2-cyclopropylmethyl-4a-(3-hydroxyphenyl)-6α-[N-methyl-(6-phenylhexanoamido)]decahydroisoquinoline], for which the Infarction suppression ratio was determined as 19% in assay [1] (Dose 0.03 mg/kg), 21% in assay [1] (Dose 0.3 mg/kg) and 7% in assay [1] (Dose 3 mg/kg). Further, the EC50 in assay [3] amounted to 43 nM. The molecule also had an ED50 in assay [4] of 5 mg/kg.
With `CN(C(=O)/C=C/c1cccc(C(F)(F)F)c1)[C@@H]1CC[C@@H]2CN(CC3CC3)CC[C@@]2(c2cccc(O)c2)C1` [Compound 9, (4aR, 8aS)-trans-2-cyclopropylmethyl-4a-(3-hydroxyphenyl)-6α-[N-methyl-(3-trifluoromethylcinnamamido)]decahydroisoquinoline], the results for the Infarction suppression ratio in assay [1] (Dose 0.3 mg/kg) and in assay [1] (Dose 3 mg/kg) were 28% and 7%, respectively. Moreover, the EC50 in assay [3] worked out at 520 nM. For the same molecule, in assay [4], the ED50 came to 3.11 mg/kg.
`CC(C)CN(C(=O)Cc1ccc(Cl)c(Cl)c1)[C@H]1CC[C@@]2(O)CN(CC3CC3)CC[C@]2(c2cccc(O)c2)C1` (relative stereo) [Compound 14, Trans-2-cyclopropylmethyl-8a-hydroxy-4a-(3-hydroxyphenyl)-6α-[N-isobutyl-(3,4-dichlorophenylacetamido)]decahydroisoquinoline]: the EC50 in assay [3] came out at 1100 nM. The molecule also displayed an ED50 in assay [4] of 5.78 mg/kg.
With `CC(C)CN(C(=O)CCCCCc1ccccc1)[C@H]1CC[C@@]2(O)CN(CC3CC3)CC[C@]2(c2cccc(O)c2)C1` (relative stereo) [Compound 13, Trans-2-cyclopropylmethyl-8a-hydroxy-4a-(3-hydroxyphenyl)-6α-[N-isobutyl-(6-phenylhexanoamido)]decahydroisoquinoline], the EC50 in assay [3] turned out to be 3000 nM.
Take `O=C(N[C@@H]1CC[C@H]2CN(CCc3ccccc3)CC[C@]2(c2cccc(O)c2)C1)c1ccc2ccccc2c1` (relative stereo) [Compound 24, Trans-2-(2-phenetyl)-4a-(3-hydroxyphenyl)-6β-(2-naphthoamido)decahydroisoquinoline]: in assay [4], the ED50 was 1.7 mg/kg.
Molecule `CN(C(=O)/C=C/c1ccoc1)[C@H]1CC[C@H]2CN(CC3CC3)CC[C@]2(c2cccc(O)c2)C1` (relative stereo) [Compound 25] gave an ED50 in assay [4] of 0.83 mg/kg.
As to `CC(C)CN(C(=O)CCCCCc1ccccc1)[C@H]1CC[C@H]2CN(CC3CC3)CC[C@]2(c2cccc(O)c2)C1` [Compound 11, (4aS, 8aR)-trans-2-cyclopropylmethyl-4a-(3-hydroxyphenyl)-6α-[N-isobutyl-(6-phenylhexanoamido)]decahydroisoquinoline], the Infarction suppression ratio is 5% in assay [1] (Dose 0.03 mg/kg) and 33% in assay [1] (Dose 3 mg/kg). In addition, the EC50 in assay [3] was determined as 60900 nM.
For `CN(C(=O)/C=C/c1cccc(C(F)(F)F)c1)[C@H]1CC[C@@]2(O)CN(CC3CC3)CC[C@]2(c2cccc(O)c2)C1` (relative stereo) [Compound 12, Trans-2-cyclopropylmethyl-8a-hydroxy-4a-(3-hydroxyphenyl)-6α-[N-methyl-(3-trifluoromethylcinnamamido)]decahydroisoquinoline], the Infarction suppression ratio in assay [1] (Dose 0.3 mg/kg) was 64%; in assay [1] (Dose 3 mg/kg) it was 48%. Besides, the ED50 came out at 0.00607 mg/kg in assay [2] and 1.49 mg/kg in assay [4]. Also, the EC50 in assay [3] amounted to 480 nM.
As to `CN(C(=O)/C=C/c1cccc(C(F)(F)F)c1)[C@H]1CC[C@H]2CN(CC3CC3)CC[C@]2(c2cccc(O)c2)C1` (relative stereo) [Compound 1, Trans-2-cyclopropylmethyl-4a-(3-hydroxyphenyl)-6α-[N-methyl-(3-trifluoromethylcinnamamido)]decahydroisoquinoline], the Infarction suppression ratio in assay [1] (Dose 0.03 mg/kg) turned out to be 32%; in assay [1] (Dose 0.3 mg/kg), 13%; in assay [1] (Dose 3 mg/kg) it was 23%.
